Source: the supplement of paper PMC10307832

Assays:
Experiment in all cases: relative viability (nuclei count vs DMSO), 5 days (fraction); higher = more cells survive
BEN = tested on: BEN
In short: (§1)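 One day after seeding in 1536-well plates, lung cancer cell lines were dosed by pin tool. Dosing was either single-drug or a fixed anchor-drug dose plus five library-drug doses (not always all listed) in √10 steps. After 5 days, nuclei were stained in one fix-and-stain step and counted on 4× images, and relative viability is the nuclei count of treated wells over that of vehicle wells, given as the median of duplicate plates.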

CAL-12T = tested on: CAL-12T
In short: as §1

EKVX = tested on: EKVX
In short: as §1

HCC-366 = tested on: HCC-366
In short: as §1

HCC-44 = tested on: HCC-44
In short: as §1

LOU-NH91 = tested on: LOU-NH91
In short: as §1

LU99A = tested on: LU99A
In short: as §1

NCI-H1355 = tested on: NCI-H1355
In short: as §1

NCI-H1395 = tested on: NCI-H1395
In short: as §1

NCI-H1437 = tested on: NCI-H1437
In short: as §1

NCI-H1650 = tested on: NCI-H1650
In short: as §1

NCI-H1651 = tested on: NCI-H1651
In short: as §1

NCI-H1734 = tested on: NCI-H1734
In short: as §1

NCI-H1755 = tested on: NCI-H1755
In short: as §1

NCI-H1975 = tested on: NCI-H1975
In short: as §1

NCI-H2023 = tested on: NCI-H2023
In short: as §1

NCI-H2085 = tested on: NCI-H2085
In short: as §1

NCI-H2342 = tested on: NCI-H2342
In short: as §1

NCI-H358 = tested on: NCI-H358
In short: as §1

NCI-H441 = tested on: NCI-H441
In short: as §1

NCI-H460 = tested on: NCI-H460
In short: as §1

NCI-H838 = tested on: NCI-H838
In short: as §1

C=C1C(=O)O[C@@H](CCCCCCCC)[C@@H]1C(=O)O [C-75] + Cc1cc(Nc2cc(N3CCN(C)CC3)nc(Sc3ccc(NC(=O)C4CC4)cc3)n2)n[nH]1 [Tozasertib] (partner 0.1 µM)
relative viability (BEN; first compound 0.08 µM): 0.494
relative viability (BEN; first compound 0.253 µM): 0.605
relative viability (BEN; first compound 0.8 µM): 0.544
relative viability (BEN; first compound 2.53 µM): 0.484
relative viability (BEN; first compound 8 µM): 0.612
relative viability (CAL-12T; first compound 0.08 µM): 0.281
relative viability (CAL-12T; first compound 0.253 µM): 0.423
relative viability (CAL-12T; first compound 0.8 µM): 0.312
relative viability (CAL-12T; first compound 2.53 µM): 0.281
relative viability (CAL-12T; first compound 8 µM): 0.345
relative viability (EKVX; first compound 0.08 µM): 0.42
relative viability (EKVX; first compound 0.253 µM): 0.56
relative viability (EKVX; first compound 0.8 µM): 0.406
relative viability (EKVX; first compound 8 µM): 0.382
relative viability (HCC-366; first compound 0.08 µM): 0.197
relative viability (HCC-366; first compound 0.253 µM): 0.151
relative viability (HCC-366; first compound 0.8 µM): 0.158
relative viability (HCC-366; first compound 8 µM): 0.115
relative viability (HCC-44; first compound 0.08 µM): 0.989
relative viability (HCC-44; first compound 0.253 µM): 0.942
relative viability (HCC-44; first compound 0.8 µM): 0.9
relative viability (HCC-44; first compound 2.53 µM): 0.878
relative viability (HCC-44; first compound 8 µM): 0.714
relative viability (LOU-NH91; first compound 0.08 µM): 0.694
relative viability (LOU-NH91; first compound 0.253 µM): 0.561
relative viability (LOU-NH91; first compound 0.8 µM): 0.597
relative viability (LOU-NH91; first compound 2.53 µM): 0.495
relative viability (LOU-NH91; first compound 8 µM): 0.642
relative viability (LU99A; first compound 0.08 µM): 0.272
relative viability (LU99A; first compound 0.253 µM): 0.251
relative viability (LU99A; first compound 0.8 µM): 0.253
relative viability (LU99A; first compound 2.53 µM): 0.283
relative viability (LU99A; first compound 8 µM): 0.288
relative viability (NCI-H1355; first compound 0.08 µM): 0.595
relative viability (NCI-H1355; first compound 0.253 µM): 0.579
relative viability (NCI-H1355; first compound 0.8 µM): 0.522
relative viability (NCI-H1355; first compound 2.53 µM): 0.554
relative viability (NCI-H1355; first compound 8 µM): 0.517
relative viability (NCI-H1395; first compound 0.08 µM): 0.73
relative viability (NCI-H1395; first compound 0.253 µM): 0.732
relative viability (NCI-H1395; first compound 0.8 µM): 0.803
relative viability (NCI-H1395; first compound 2.53 µM): 0.669
relative viability (NCI-H1395; first compound 8 µM): 0.795
relative viability (NCI-H1437; first compound 0.08 µM): 0.387
relative viability (NCI-H1437; first compound 0.253 µM): 0.462
relative viability (NCI-H1437; first compound 0.8 µM): 0.442
relative viability (NCI-H1437; first compound 2.53 µM): 0.355
relative viability (NCI-H1437; first compound 8 µM): 0.437
relative viability (NCI-H1650; first compound 0.08 µM): 0.413
relative viability (NCI-H1650; first compound 0.253 µM): 0.647
relative viability (NCI-H1650; first compound 2.53 µM): 0.422
relative viability (NCI-H1650; first compound 8 µM): 0.38
relative viability (NCI-H1651; first compound 0.08 µM): 0.694
relative viability (NCI-H1651; first compound 0.253 µM): 0.995
relative viability (NCI-H1651; first compound 0.8 µM): 0.706
relative viability (NCI-H1651; first compound 2.53 µM): 0.688
relative viability (NCI-H1651; first compound 8 µM): 0.682
relative viability (NCI-H1734; first compound 0.08 µM): 0.286
relative viability (NCI-H1734; first compound 0.253 µM): 0.225
relative viability (NCI-H1734; first compound 0.8 µM): 0.262
relative viability (NCI-H1734; first compound 2.53 µM): 0.198
relative viability (NCI-H1734; first compound 8 µM): 0.235
relative viability (NCI-H1755; first compound 0.08 µM): 0.568
relative viability (NCI-H1755; first compound 0.253 µM): 0.638
relative viability (NCI-H1755; first compound 0.8 µM): 0.552
relative viability (NCI-H1755; first compound 2.53 µM): 0.512
relative viability (NCI-H1755; first compound 8 µM): 0.572
relative viability (NCI-H1975; first compound 0.08 µM): 0.873
relative viability (NCI-H1975; first compound 0.253 µM): 0.757
relative viability (NCI-H1975; first compound 0.8 µM): 0.684
relative viability (NCI-H1975; first compound 2.53 µM): 0.732
relative viability (NCI-H1975; first compound 8 µM): 0.78
relative viability (NCI-H2023; first compound 0.08 µM): 0.407
relative viability (NCI-H2023; first compound 0.253 µM): 0.443
relative viability (NCI-H2023; first compound 0.8 µM): 0.302
relative viability (NCI-H2023; first compound 2.53 µM): 0.384
relative viability (NCI-H2023; first compound 8 µM): 0.409
relative viability (NCI-H2085; first compound 0.08 µM): 0.798
relative viability (NCI-H2085; first compound 0.253 µM): 0.746
relative viability (NCI-H2085; first compound 0.8 µM): 0.79
relative viability (NCI-H2085; first compound 2.53 µM): 0.803
relative viability (NCI-H2085; first compound 8 µM): 0.67
relative viability (NCI-H2342; first compound 0.08 µM): 0.652
relative viability (NCI-H2342; first compound 0.253 µM): 0.503
relative viability (NCI-H2342; first compound 0.8 µM): 0.604
relative viability (NCI-H2342; first compound 2.53 µM): 0.496
relative viability (NCI-H2342; first compound 8 µM): 0.472
relative viability (NCI-H358; first compound 0.08 µM): 0.0979
relative viability (NCI-H358; first compound 0.253 µM): 0.104
relative viability (NCI-H358; first compound 0.8 µM): 0.104
relative viability (NCI-H358; first compound 2.53 µM): 0.0847
relative viability (NCI-H358; first compound 8 µM): 0.103
relative viability (NCI-H441; first compound 0.08 µM): 0.624
relative viability (NCI-H441; first compound 0.253 µM): 0.895
relative viability (NCI-H441; first compound 0.8 µM): 0.713
relative viability (NCI-H441; first compound 2.53 µM): 0.543
relative viability (NCI-H441; first compound 8 µM): 0.729
relative viability (NCI-H460; first compound 0.08 µM): 0.405
relative viability (NCI-H460; first compound 0.253 µM): 0.798
relative viability (NCI-H460; first compound 0.8 µM): 0.391
relative viability (NCI-H460; first compound 2.53 µM): 0.657
relative viability (NCI-H460; first compound 8 µM): 0.449
relative viability (NCI-H838; first compound 0.08 µM): 0.311
relative viability (NCI-H838; first compound 0.8 µM): 0.229
relative viability (NCI-H838; first compound 2.53 µM): 0.293
relative viability (NCI-H838; first compound 8 µM): 0.266
